Data as given in PubChem BioAssay (NCI).
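Each compound was tested at five concentrations against cells in 96-well plates for 48 hours. At the GI50, growth is halved. TGI: total growth inhibition.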 Calls of active or inactive are those of the source. Cut-off read from the data, not from the text of the source: active = GI50 below about 0.43 µM; inactive = the rest.

Columns and labels:
Assay in all cases: NCI tumour cell line growth inhibition, 48 h
RXF-631 renal = system: RXF-631 renal
KM20L2 colon = system: KM20L2 colon
SN12K1 renal = system: SN12K1 renal
P388 leukemia = system: P388 leukemia
P388/ADR leukemia = system: P388/ADR leukemia

O=C(Cc1ccccc1)C(c1ccccc1)S(=O)(=O)c1ccccc1 (centres undefined)
TGI (RXF-631 renal): > 100 µM
TGI (KM20L2 colon): > 100 µM

O=c1[nH]c2ccccc2n1C1CCN(CCCC(c2ccc(F)cc2)c2ccc(F)cc2)CC1
TGI (KM20L2 colon): 5.87 µM

CC(N)CC(=O)O (centres undefined)
TGI (KM20L2 colon): > 5000 µM

C#CCNC(=O)NC(CCCCNC(=O)OCc1ccccc1)C(=O)OCc1ccccc1 (centres undefined)
TGI (KM20L2 colon): > 100 µM

O=C(CO)C1CC2C=CC1C2 (centres undefined)
TGI (RXF-631 renal): > 100 µM

CC(=O)CC(=O)CCC(=O)Nc1cccc(C(F)(F)F)c1
TGI (KM20L2 colon): > 100 µM

COc1c(CC=C(C)C)c(O)c(C(CC(C)C)c2c(O)c(CC=C(C)C)c(O)c(C(C)=O)c2O)c(O)c1C(C)=O (centres undefined)
TGI (RXF-631 renal): 6.94 µM

O=[N+]([O-])/C=C/c1ccc(Cl)cc1Cl
TGI (KM20L2 colon): 42.1 µM

CCOC(=O)C(CCCNC(=O)OC(C)(C)C)N(Cc1ccc(OC)cc1OC)C(=O)CC(=O)CP(=O)(OCC)OCC (centres undefined)
TGI (RXF-631 renal): > 100 µM
TGI (KM20L2 colon): > 100 µM

C/C(=N\NC(=S)N1CCN(c2ccccn2)CC1)c1ncccn1
TGI (SN12K1 renal): 1.61 µM
TGI (P388 leukemia): 0.0153 µM
TGI (P388/ADR leukemia): 0.0154 µM

O=C(c1c(O)cc(O)cc1O)C1Cc2ccccc21 (centres undefined)
TGI (KM20L2 colon): > 100 µM

COc1c(OC(C)C)cc2cc(O)c(C(=O)NC3Cc4ccc(c(Cl)n4)O[C@@H]4C=C5C#C/C(=C\C#CC6OC56C4OC4CC(C)(O)C(O)C(C)O4)C(OC4CC(O)C(N(C)C)C(C)O4)COC3=O)cc2c1OC (some centres undefined)
outcome (RXF-631 renal): inactive
outcome (KM20L2 colon): inactive

CC(=O)[CH-]C(C)=O.CC(=O)[CH-]C(C)=O.CC(=O)[CH-]C(C)=O.[Ga+3]
GI50 (KM20L2 colon): > 100 µM
TGI (KM20L2 colon): > 100 µM

CC1CCC2(C)C(CC=C(C=O)C2(O)C=O)C12CO2 (centres undefined)
TGI (RXF-631 renal): 5.77 µM
TGI (KM20L2 colon): 6.09 µM

N#CNC1=NC(N)C(c2nc3ccccc3[nH]2)=C(CCCC(=O)Nc2cccc([N+](=O)[O-])c2)N1 (centres undefined)
TGI (KM20L2 colon): > 100 µM

CC(C)OC(=O)C1Cc2c([nH]c3ccccc23)C(c2ccccc2)N1 (centres undefined)
TGI (KM20L2 colon): > 100 µM

C[P+]1(c2ccccc2)CCCCC1
TGI (RXF-631 renal): > 100 µM
TGI (KM20L2 colon): > 100 µM

C=C1C=CC2(Br)OC3CC(C)(Cl)C(Br)CC13C2(C)C (centres undefined)
TGI (RXF-631 renal): > 100 µM
TGI (KM20L2 colon): 49.7 µM

Cn1nc(-c2ccccc2)c(C(=O)/C=C/c2ccc(Cl)cc2)c(N2CCOCC2)c1=O
TGI (RXF-631 renal): 23.2 µM
TGI (KM20L2 colon): 13.8 µM
